# From patent US7547700B2, “Aryl-[4-halo-4(heteroarylmethylamino)-methyl]-piperidin-1-1yl]-methanone derivatives, methods for production and use thereof as medicaments” (PIERRE Fabre Medicament, priority 2002, dated 2009)
# Counter-ions that a name gives are not always drawn. Like-named read-outs stand apart in the source and are kept apart here.
# How the values were obtained:
# [1] = target: T1, dopaminergic D2 receptors (Rattus norvegicus, UniProt P61169); assay: Affinity for the D2 receptors, displacement of [3H]YM-09151-2; assay type: binding; details: rat striatum, [3H]YM-09151-2 displacement, mean of at least 3 experiments
# T1 construct: For these experiments, rat striatum is used; from tissue; host or cells: rat striatum homogenate
# T1 sequence (P61169 whole entry): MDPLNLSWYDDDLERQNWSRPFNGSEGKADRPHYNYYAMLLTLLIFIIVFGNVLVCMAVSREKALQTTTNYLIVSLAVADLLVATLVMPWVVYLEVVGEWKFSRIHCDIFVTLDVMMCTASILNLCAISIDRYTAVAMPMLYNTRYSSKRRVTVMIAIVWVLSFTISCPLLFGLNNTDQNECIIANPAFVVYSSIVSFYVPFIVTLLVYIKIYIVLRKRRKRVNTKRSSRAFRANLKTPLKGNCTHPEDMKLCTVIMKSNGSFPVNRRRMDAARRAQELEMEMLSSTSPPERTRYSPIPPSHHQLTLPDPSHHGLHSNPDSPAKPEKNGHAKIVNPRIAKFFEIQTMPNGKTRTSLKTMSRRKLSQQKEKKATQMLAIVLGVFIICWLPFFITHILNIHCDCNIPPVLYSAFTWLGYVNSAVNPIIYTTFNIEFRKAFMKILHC
# Method: Measurement of the affinity of the compounds of the invention for the D2 receptors
# For these experiments, rat striatum is used. After thawing the brain in Tris-HCl buffer (50 mmol, pH=7.4) at 25° C., the striatum is removed and homogenized in 40 volumes of buffer maintained at 4° C. The homogenate is centrifuged at 20 000×g for 10 minutes, and the centrifugation pellet is suspended in the same volume of buffer and recentrifuged. The final pellet is suspended in cold Tris-HCl reaction buffer at 25° C. containing 120 mmol of NaCl and 5 mmol of KCl. The final concentration of tissue in the incubation medium is 2 mg/tube. […] The nonspecific binding is defined by using […] of (+)-butaclamol. The reaction tubes are incubated at 23° C. for 60 minutes and their content is then rapidly filtered through Whatman GF/B filters, and the tubes are rinsed twice with 5 ml of Tris-HCl buffer at 25° C. The radioactivity collected on the filter is analyzed by liquid scintillation, by adding 4 ml of scintillant liquid (Emulsifier Safe, Packard). All the experiments are performed in triplicate.
# [2] = target: T2, 5-HT1A receptors (Homo sapiens, UniProt P08908); assay: Efficacy: stimulation of [35S]GTPγS binding in a cell membrane preparation; assay type: biochemical
# T2 construct: Gibco Biocult; Laboratory, Paisley UK; host or cells: unspecified cells; membrane preparation
# T2 sequence (P08908 1-422): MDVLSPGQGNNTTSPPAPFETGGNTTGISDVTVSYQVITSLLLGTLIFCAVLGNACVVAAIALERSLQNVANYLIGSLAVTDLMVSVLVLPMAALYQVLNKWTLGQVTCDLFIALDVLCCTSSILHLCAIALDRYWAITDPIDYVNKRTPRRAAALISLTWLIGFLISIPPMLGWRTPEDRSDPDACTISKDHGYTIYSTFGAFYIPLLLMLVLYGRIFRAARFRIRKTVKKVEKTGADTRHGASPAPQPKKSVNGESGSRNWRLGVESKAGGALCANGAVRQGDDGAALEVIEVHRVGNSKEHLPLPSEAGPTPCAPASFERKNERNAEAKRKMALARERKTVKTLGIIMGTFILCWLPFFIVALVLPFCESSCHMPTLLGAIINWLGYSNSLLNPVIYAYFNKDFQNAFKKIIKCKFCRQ
# Method: Measurement of the Efficacy of the Compounds of the Invention
# The cells (Gibco Biocult. Laboratory, Paisley UK) are collected in phosphate buffer (pH=7.4) and centrifuged at 48 000 g for 20 minutes. The centrifugation pellet is homogenized in Hepes (20 mmol, pH=7.4) containing EDTA (10 mmol) and recentrifuged at 48 000×g for 10 minutes. The centrifugation pellet is washed twice in Hepes (10 mmol, pH=7.4) containing EDTA (0.1 mmol). The pellet is stored at −80° C. in portions of 600 to 750 μg of protein. […] The incubation medium contains 0.4 ml of membrane preparation and 0.05 ml of test compound. After incubation for 30 minutes at 25° C., 0.05 ml of [^35S]GTPγS (500 picomol), ([^35S]GTPγS (1100 Ci/mmol), Amersham, Les Ulis France), is added and the mixture incubated for 30 minutes. The reactions are quenched by addition of 3 ml of ice-cold Hepes (20 mmol) containing 3 mmol of MgCl2 and rapid filtration through Whatman GF/B filters. The tubes are rinsed 3 times with 5 ml of Hepes buffer at 25° C. The radioactivity collected on the filter is analyzed by liquid scintillation by adding 4 ml of scintillant liquid (Emulsifier Safe, Packard). […] All the experiments are performed in triplicate.
# [3] = target: T3, 5-HT1A receptors (Rattus norvegicus, UniProt P19327); assay: Affinity for the 5-HT1A receptors, displacement of [3H]8-OH-DPAT; assay type: binding; details: for Selectivity 5-HT1A/D2: ratio of 5-HT1A to D2 affinity
# T3 construct: For these experiments, rat cerebral cortices are used; from tissue; host or cells: rat cerebral cortex homogenate
# T3 sequence (P19327 1-422): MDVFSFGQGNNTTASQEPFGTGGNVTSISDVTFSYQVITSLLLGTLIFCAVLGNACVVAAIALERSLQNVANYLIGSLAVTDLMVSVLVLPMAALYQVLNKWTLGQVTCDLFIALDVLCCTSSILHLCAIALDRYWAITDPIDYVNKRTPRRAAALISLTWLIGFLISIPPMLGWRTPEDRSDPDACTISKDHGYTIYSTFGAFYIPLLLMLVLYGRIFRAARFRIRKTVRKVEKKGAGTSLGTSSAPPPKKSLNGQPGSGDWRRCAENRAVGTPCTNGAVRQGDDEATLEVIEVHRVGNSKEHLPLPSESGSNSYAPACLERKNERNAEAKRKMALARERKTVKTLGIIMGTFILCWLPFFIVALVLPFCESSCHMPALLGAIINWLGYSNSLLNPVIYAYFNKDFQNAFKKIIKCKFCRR
# Method: Measurement of the affinity of the compounds in the invention for the 5-HT1A receptors
# For these experiments, rat cerebral cortices are used. After thawing the brain in Tris-HCl buffer (50 mmol, pH=7.4) at 25° C., the cerebral cortex is removed and homogenized in 20 volumes of buffer maintained at 4° C. The homogenate is centrifuged at 39 000×g for 10 minutes, and the centrifugation pellet is suspended in the same volume of buffer and recentrifuged. After resuspending under the same conditions, the homogenate is incubated for 10 minutes at 37° C. and then recentrifuged. The final pellet is suspended in cold Tris-HCl reaction buffer (50 mmol) at 25° C. containing […] of pargyline, 4 mmol of CaCl2 and 0.10% of ascorbic acid. The final concentration of tissue in the incubation medium is 10 mg/tube.
# The nonspecific binding is defined by using […] of serotonin. The reaction tubes are incubated at 23° C. for 30 minutes and their content is then rapidly filtered under vacuum through Whatman GF/B filters, and the tubes are rinsed with twice 5 ml of tris-HCl buffer at 25° C. The radio-activity collected on the filter is analyzed by liquid scintillation, by adding 4 ml of scintillant liquid (Emulsifier Safe, Packard, Warrenville, USA). All the experiments are performed in triplicate.
# [4] = read-out: 5-HT1A pKi (converted)
# [5] = [35S]GTPγS binding, maximum stimulation defined with serotonin (10 μmmol), read-out: % stimulation Maximum effect
smiles,measurement,setting,value
"O=C(c1ccc(F)c(Cl)c1)N1CCC(F)(CNCc2ccc(O)cn2)CC1 (as salt: fumarate) [Compound 1-1, (3-chloro-4-fluorophenyl)(4-fluoro-4-{[(5-hydroxypyridin-2-ylmethyl)amino]methyl}-piperidin-1-yl)methanone]",melting point,,225 to 227 °C
"N#Cc1ccc(CNCC2(F)CCN(C(=O)c3ccc(F)c(Cl)c3)CC2)nc1 (as salt: fumarate) [Compound 1-2, (3-chloro-4-fluorophenyl)-(4-fluoro-4-{[(5-cyanopyridin-2-ylmethyl)amino]methyl}-piperidin-1-yl)methanone]",melting point,,170 to 172 °C
"O=C(c1ccc(F)c(Cl)c1)N1CCC(F)(CNCc2ccc(Cl)cn2)CC1 (as salt: fumarate) [Compound 1-3, (3-chloro-4-fluorophenyl)-(4-fluoro-4-{[(5-chloropyridin-2-ylmethyl)amino]methyl}piperidin-1-yl)methanone]",melting point,,160 to 162 °C
"O=C(c1ccc(F)c(Cl)c1)N1CCC(F)(CNCc2ccc(CF)cn2)CC1 (as salt: fumarate) [Compound 1-4, (3-chloro-4-fluorophenyl)-(4-fluoro-4-{[(5-fluoromethylpyridin-2-ylmethyl)amino]-methyl}piperidin-1-yl)methanone]",melting point,,157 to 159 °C
"Cc1cnc(CNCC2(F)CCN(C(=O)c3ccc(Cl)c(Cl)c3)CC2)nc1 (as salt: fumarate) [Compound 1-6, (3,4-dichlorophenyl)-(4-fluoro-4-{[(5-methylpyrimidin-2-ylmethyl)amino]-methyl}piperidin-1-yl)methanone]",melting point,,161 °C
"Cc1ccc(CNCC2(F)CCN(C(=O)c3ccc(F)c(F)c3)CC2)nc1 (as salt: fumarate) [Compound 1-11, (3,4-difluorophenyl)-(4-fluoro-4-{[(5-methylpyridin-2-ylmethyl)amino]methyl}piperidin-1-yl)methanone]",melting point,,158 °C
"Cc1ccc(CNCC2(F)CCN(C(=O)c3ccc(Cl)c(F)c3)CC2)nc1 (as salt: fumarate) [Compound 1-12, (3-fluoro-4-chlorophenyl)-(4-fluoro-4-{[(5-methylpyridin-2-ylmethyl)amino]methyl}piperidin-1-yl)methanone]",melting point,,150 °C
"Cc1ccc(CNCC2(F)CCN(C(=O)c3ccc(F)c(C#N)c3)CC2)nc1 (as salt: fumarate) [Compound 1-13, (3-cyano-4-fluorophenyl)-(4-fluoro-4-{[(5-methylpyridin-2-ylmethyl)amino]methyl}piperidin-1-yl)methanone]",melting point,,175 °C
"Cc1ccc(CNCC2(F)CCN(C(=O)c3ccc(F)c(Cl)c3)CC2)nn1 (as salt: hydrochloride) [Compound 1-7, (3-chloro-4-fluorophenyl)-(4-fluoro-4-{[(6-methylpyridazin-3-ylmethyl)amino]-methyl}piperidin-1-yl)methanone]",melting point,,205 °C (dec.)
"Cc1ccc(CNCC2(Cl)CCN(C(=O)c3ccc(F)c(Cl)c3)CC2)nc1 (as salt: hydrochloride) [Compound 1-9, (3-chloro-4-fluorophenyl)-(4-chloro-4-{[(5-methylpyridin-2-ylmethyl)amino]-methyl}piperidin-1-yl)methanone]",melting point,,190 °C (dec.)
"Cc1ccc(CNCC2(F)CCN(C(=O)c3cccc(C(F)(F)F)c3)CC2)nc1 (as salt: hydrochloride) [Compound 1-14, (3-trifluoromethylphenyl)-(4-fluoro-4-{[(5-methylpyridin-2-ylmethyl)amino]methyl}piperidin-1-yl)methanone]",melting point,,172 °C
"Cc1ccc(CNCC2(F)CCN(C(=O)c3ccc(Cl)c(Cl)c3)CC2)nn1 (as salt: oxalate) [Compound 1-8, (3,4-dichlorophenyl)-(4-fluoro-4-{[(6-methylpyridazin-3-ylmethyl)amino]-methyl}piperidin-1-yl)methanone]",melting point,,203 °C (dec.)
"CCCN(CCC)C1CCc2cccc(O)c2C1 (single isomer, unassigned; (+)) [(+)-8-OH-DPAT, reference compound]",Ki,[1]; D2 pKi,794 nM
same,% stimulation Maximum effect,"[2]; [35S]GTPγS binding, maximum stimulation defined with serotonin (10 μmmol)",59%
"Cc1ccc(CNCC2(F)CCN(C(=O)c3ccc(F)c(Cl)c3)CC2)nn1 [Compound 1-7, (3-chloro-4-fluorophenyl)-(4-fluoro-4-{[(6-methylpyridazin-3-ylmethyl)amino]-methyl}piperidin-1-yl)methanone]",Ki,[1]; read-out: D2 pKi (converted),> 10000 nM
same,Selectivity 5-HT1A/D2,[3],>1000
same,Ki,[3]; [4],5.01 nM
same,Emax,[2]; [5],90%
"Cc1ccc(CNCC2(Cl)CCN(C(=O)c3ccc(F)c(Cl)c3)CC2)nc1 [Compound 1-9, (3-chloro-4-fluorophenyl)-(4-chloro-4-{[(5-methylpyridin-2-ylmethyl)amino]-methyl}piperidin-1-yl)methanone]",Ki,[1]; read-out: D2 pKi (converted),> 10000 nM
same,Selectivity 5-HT1A/D2,[3],>1000
same,Ki,[3]; [4],0.794 nM
same,Emax,[2]; [5],100%
"CCCN(CCC)C1CCc2cccc(O)c2C1 (stereo not drawn) [Compound 8-OH-DPAT, 8-hydroxy-2-di-n-propylaminotetralin, reference compound]",Ki,[1]; D2 pKi,631 nM
same,Emax,"[2]; read-out: % stimulation Maximum effect, [35S]GTPγS binding, maximum stimulation defined with serotonin (10 μmmol)",41%
"Cc1ccc(CNCC2(F)CCN(C(=O)c3ccc(F)c(Cl)c3)CC2)nc1 [Compound I-66, (3-chloro-4-fluorophenyl)(4-fluoro-4-{[(5-methylpyridin-2-ylmethyl)-amino]methyl}piperidin-1-yl)methanone, reference compound]",Ki,[3],0.794 nM
same,Emax,[2]; [5],75%
O=C1CC2(CCCC2)CC(=O)N1CCCCN1CCN(c2ncccn2)CC1 [buspirone],Emax,[2]; [5],22%
